Measured values reported in patent publication US5006515A, “Pharmaceuticals, phosphorus-containing 2-isoxazolines and isoxazoles contained therein” (Hoechst Aktiengesellschaft, priority 1987, dated 1991).

Columns and labels:
[1] = target: leucine aminopeptidase; test: Inhibition of leucine aminopeptidase; format: biochemical; conditions: substrate L-leucine 4-nitroanilide
Description: (§1) The activity of the enzyme aminopeptidase B was determined photometrically using the substrate L-lysine 2-naphthylamide at room temperature. […] In the same way, the inhibition of leucine aminopeptidase was investigated using L-leucine 4-nitroanilide as enzyme substrate. The IC50 values are compiled in Table 6.

[2] = system: DTH reaction to sheep erythrocytes; test: Delayed-type hypersensitivity (DTH) reaction to sheep erythrocytes; format: in vivo, female NMRI mice; conditions: single i.p. dose of 40 mg/kg, maximal stimulation by Example 34 = 100%
Description: Groups each comprising 5 female NMRI mice with a body weight of 18 to 20 g were formed, and each animal was given 10^6 or 10^9 sheep red blood cells intravenously. Sheep erythrocytes are regarded in immunology as a standard antigen with which it is possible to check cellular and humoral immunoreactivity, especially the functioning of the T-cell-dependent component of the immune system, the so-called T-helper cells. The test substances were administered, in intraperitoneal doses of 5 to 100 mg/kg in physiological saline, at the same time as the antigen. After 5 days, each animal was given an injection of 2×10^8 sheep erythrocytes into the footpad. 24 hours later, the swelling of the foot was measured. The foot swelling is induced by a skin reaction of the delayed type (DTH reaction) and, as is known to those skilled in the art, is a measure of the cellular immune response (J. Immunol. 101 (1968), 830-845). The test results obtained with the product of Example 34, by way of example, are compiled in Table 7 and illustrate that the compounds of the formula I--administered prophylactically--are able to increase the cellular immune response after immunization with the antigen by stimulation of the T-cell system, with the stimulant action reaching its optimum in this experiment at a dose of 25 mg/kg.

[3] = system: active Arthus reaction; test: Active Arthus reaction in the rat; format: in vivo, Sprague-Dawley rats; conditions: 4 h after ovalbumin challenge; for change in vivo at 50 mg/kg / Active Arthus reaction % change: oral dose 50 mg/kg
Description: The experimental animals used were female and male Sprague-Dawley rats with a body weight between 80 and 100 g which received subcutaneous injections into the tail-head of 0.5 ml of an emulsion of pertussis vaccine and ovalbumin in liquid paraffin. After two weeks, the rats were divided into groups each of 8 animals. 24 hours and 1 hour before induction of the Arthus reaction by injection of 0.1 ml of a 0.4% strength ovalbumin solution into the right hind paw, the particular test substance or the pure vehicle (positive control) was administered orally, sodium chloride solution was injected into the left paw. One group of unsensitized animals (negative control group) was likewise treated with ovalbumin in order to be able to rule out nonspecific reactions to the protein. The parameter used for measuring the action of the product was the percentage change in the increase in paw volume compared with that in the control group which was sensitized but untreated (positive control) 4 hours after ovalbumin challenge, when the swelling had reached its maximum.

[4] = Acute toxicity; set-up: species or system mice; conditions: mouse, in vivo, single dose, mortality within 7 days
Description: The LD50 values were determined by the standard method via the mortality occurring within 7 days in NMRI (Naval Medical Research Institute) mice (6 animals per dose) after a single intraperitoneal (i.p.) or intravenous (i.v.) dose.

[5] = system: cGvH reaction; test: Chronic graft-versus-host (cGvH) reaction in the mouse; format: in vivo, female mice of (DBA/2×C57Bl/6)F1 generation; conditions: 6 weeks
Source text: Graft-versus-host disease, which derives from an immune reaction originating from the transplant and directed against the host tissue, is characterized, in the acute form which almost always has a fatal outcome, by enlargement of the spleen, swelling of the liver, hypertrophy of the lymph nodes, hemolytic anemia, lowered immunoglobulin and complement levels and diminished immunoreactivity. The chronic form of the disease, which has a somewhat milder course, leads to lymphadenopathy, immune complex glomerulonephritis and excessive formation of non-organ-specific autoantibodies. A syndrome with similar features is systemic lupus erythematosus (SLE) which is likewise one of the autoimmune diseases.
The investigation of the compounds used according to the invention for the progress of the cGvH reaction induced in female mice of (DBA/2×C57Bl/6)F1 generation by two injections of spleen and thymus cells mixed together are carried out in the experimental system described by S. Popovic and R. R. Bartlett (Agents and Actions 21 (1987), 284-286), with 5×10^7 DBA/2 cells, likewise obtained from female donor animals, being administered intravenously in 0.2 ml of culture medium each time at a time interval of 7 days. For a reliable assessment of the outbreak and course of the disease, a group of healthy animals was included as negative control in all experiments. The 6-week oral treatment of the animals with the disease started on day 21 after the first donor cell injection, with the test substances or the pure vehicle (positive control) being administered once a day. The vehicle used was an aqueous CMC (carboxymethylcellulose sodium salt) solution containing 100 mg of CMC per 1. The volume administered was 10 ml per kg body weight. The individual experimental groups each comprised 10 animals.
The action of the products was assessed on the basis of the inhibition of proteinuria and the cGvH index. As a consequence of the destruction of nephrons by deposition of immune complexes on the basement membranes of the glomeruli, the animals with the disease developed pronounced proteinuria, which correlates with the extent of glomerulonephritis and can easily be quantified via the increase in the amount of protein excreted with the urine. The second parameter measured, the cGvH index, relates to the great enlargement of the spleen (splenomegaly) caused by the cGvH reaction. It is defined as the quotient of the product of the spleen and body weights of the animals with the disease and of the product of the corresponding weights of healthy untreated animals on the negative control group, and is a reliable measure of the intensity of the disease (the greater this index, the more severe the disease).

[6] = target: aminopeptidase B (Homo sapiens, UniProt Q9H4A4); test: Inhibition of aminopeptidase B; format: biochemical
Chain of aminopeptidase B (Q9H4A4 whole entry, species assumed): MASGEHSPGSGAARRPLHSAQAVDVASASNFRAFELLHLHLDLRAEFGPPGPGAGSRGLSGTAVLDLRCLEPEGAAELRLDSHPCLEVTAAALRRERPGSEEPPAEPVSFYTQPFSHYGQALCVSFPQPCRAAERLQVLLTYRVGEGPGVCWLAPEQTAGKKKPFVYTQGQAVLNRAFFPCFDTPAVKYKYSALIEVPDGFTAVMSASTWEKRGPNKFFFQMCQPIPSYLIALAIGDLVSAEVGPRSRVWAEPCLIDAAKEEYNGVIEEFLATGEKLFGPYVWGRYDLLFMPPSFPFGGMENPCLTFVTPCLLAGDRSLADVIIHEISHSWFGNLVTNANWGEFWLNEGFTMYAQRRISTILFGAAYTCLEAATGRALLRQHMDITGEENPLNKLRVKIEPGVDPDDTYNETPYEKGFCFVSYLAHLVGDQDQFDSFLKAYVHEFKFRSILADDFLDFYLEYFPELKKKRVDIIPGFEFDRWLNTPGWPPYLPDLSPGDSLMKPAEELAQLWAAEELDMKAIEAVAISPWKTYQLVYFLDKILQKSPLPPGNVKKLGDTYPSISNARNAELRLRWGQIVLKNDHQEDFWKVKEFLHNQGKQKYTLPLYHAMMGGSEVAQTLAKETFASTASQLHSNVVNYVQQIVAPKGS
Description: as §1

[7] = system: peritoneal macrophages; test: Activation of peritoneal macrophages: chemiluminescence (oxidative metabolism); conditions: single i.p. dose of 40 mg/kg; maximum activation by Example 34 = 100%; 40 mg/kg
[8] = system: peritoneal macrophages; test: Stimulation of the release of lysosomal enzymes from peritoneal macrophages (exocytosis); conditions: single i.p. dose of 40 mg/kg; maximum activation by Example 34 = 100%; 40 mg/kg

## O=P(O)(O)C1CC(c2ccccc2)=NO1 (centres unmarked) [Example 36]
[1]
  Leucine aminopeptidase IC50: 56 μug/ml
[2]; 40 mg/kg
  Relative stimulation of the DTH reaction: 102%

## O=C(C1=NOC(P(=O)(O)O)C1)c1ccccc1 (centres unmarked) [Example 53]
[1]
  Leucine aminopeptidase IC50: 65 μug/ml
[2]
  Relative stimulation of the DTH reaction: 68%

## COc1ccc(-c2cc(P(=O)(O)O)on2)cc1 [Example 54]
[3]; Rattus norvegicus, po, 4 h, oral dose 40 mg/kg
  change in vivo at 40 mg/kg: -57%
[4]; iv
  LD50 at 168 h: > 200 mg/kg
[5]; oral dose 15 mg/kg/day
  % inhibition Proteinuria: 27%
  % inhibition cGvH index: 16%
[5]; oral dose 50 mg/kg/day
  % inhibition Proteinuria: 64%
  % inhibition cGvH index: 18%

## O=P(O)(O)C1CC(c2ccccc2)=NO1 (centres unmarked) [Example 35]
[3]; Rattus norvegicus, po, 4 h, oral dose 35 mg/kg, read-out: Active Arthus reaction % change
  change in vivo at 35 mg/kg: -16%
[4]; iv
  LD50 at 168 h: > 200 mg/kg
[1]
  Leucine aminopeptidase IC50: 57 μug/ml
[2]; 40 mg/kg
  Relative stimulation of the DTH reaction: 98%

## COP(C)(=O)C1CC(c2ccccc2)=NO1 (centres unmarked) [Example 13, Methyl 3-phenyl-2-isoxazolin-5-yl(P-methyl)phosphinate]
[3]; Rattus norvegicus
  change in vivo at 50 mg/kg: -13%
[4]; iv
  LD50 at 168 h: > 200 mg/kg
[6]
  IC50: 418 µM

## O=P(O)(O)C1CC(c2ccccc2)=NO1 (centres unmarked) [Example 37]
[1]
  Leucine aminopeptidase IC50: 52 μug/ml
[2]; 40 mg/kg
  Relative stimulation of the DTH reaction: 77%

## O=P(O)(O)C1CC(c2ccccc2)=NO1 (single isomer, unassigned; (+)) [Example 61, (+)-3-Phenyl-2-isoxazolin-5-ylphosphonic acid]
[3]
  Active Arthus reaction % change: +52%
[1]
  Leucine aminopeptidase IC50: 26 μug/ml
[2]; 40 mg/kg
  Relative stimulation of the DTH reaction: 108%

## COP(=O)(OC)C1CC(c2ccccc2)=NO1 (single isomer, unassigned) [Example 60a, Dimethyl (+)- and (-)-3-phenyl-2-isoxazolin-5-ylphosphonate]
[7]
  Relative stimulation of macrophage activity: Chemiluminescence: 51%
[8]
  Relative stimulation of macrophage activity: Exocytosis: 88%

## O=P(O)(O)C1CC(c2ccccc2)=NO1 (single isomer, unassigned; (-)) [Example 62, (-)-3-Phenyl-2-isoxazolin-5-ylphosphonic acid]
[3]
  Active Arthus reaction % change: +16%
[1]
  Leucine aminopeptidase IC50: 130 μug/ml
[2]; 40 mg/kg
  Relative stimulation of the DTH reaction: 83%

## CP(=O)(O)C1CC(c2ccccc2)=NO1 (centres unmarked) [Example 63, 3-Phenyl-2-isoxazolin-5-yl(P-methyl)phosphinic acid]
[3]; Rattus norvegicus, po, 4 h
  change in vivo at 50 mg/kg: -48%
[4]; ip
  LD50 at 168 h: 300 to 600 mg/kg
[5]; oral dose 15 mg/kg/day
  % inhibition Proteinuria: 76%
  % inhibition cGvH index: 54%
[5]; oral dose 30 mg/kg/day
  % inhibition Proteinuria: 61%
  % inhibition cGvH index: 48%

## COP(=O)(OC)C1CC(c2ccccc2)=NO1 (single isomer, unassigned) [Example 60b, Dimethyl (+)- and (-)-3-phenyl-2-isoxazolin-5-ylphosphonate]
[7]
  Relative stimulation of macrophage activity: Chemiluminescence: 24%
[8]
  Relative stimulation of macrophage activity: Exocytosis: 63%
